# Experimental data from patent publication US10662445B2, “Process for the production of bio-butanol by fermentation of glycosidic waste matter” (priority 2018, dated 2020).
# Key:
# [1] = system: Clostridium acetobutylicum NRRL B-582 (ATCC-824) (CA); assay: Bio-compatibility (solvent toxicity) batch ABE fermentation, CA; conditions: for ABE / Butanol: CA
# Protocol: (§1) Clostridium acetobutylicum NRRL B-582 (ATCC-824) (CA) and Clostridium beijerinckii NRRL B-466(CB) were considered for current investigation to produce bio-butanol from different brewery industry wastes. They were kindly provided by Agricultural Research Station, USDA (USA). The microorganisms were grown and maintained in peptone-yeast extract-glucose (PYG) media under anaerobic condition (vegetative growth) at 37±1° C. and 150 rpm for 24 h and 17 h, respectively, before being transferred into the fermentation medium. The medium (g L^−1) comprised: glucose (10); yeast extract (10); peptone (5); tryptone (5); cysteine-HCl (0.5); K2HPO4 (2.04); KH2PO4 (0.04); FeSO4*7H2O (1.1×10^−3); CaCl2 (8×10^−3); MgSO4*7H2O (0.0192); NaCl (0.08); and NaHCO3 (0.4). 125 mL serum bottles (working volume 50 mL) were used for both butanol production and inoculum development (Maiti et al., January 2016, Maiti et al., August 2015). Anaerobic conditions were maintained within the bottle by sparging N2 for 10 minutes and immediately sealed by an aluminum crimp seal containing silicone septum (Fisher scientific, Canada) by means of a hand operated crimper (E-Z Crimper™, VWR, Ontario, Canada). Prior to culture development, the medium was sterilized for 20 min at 121±1° C. About 10% (v/v) (dry cell weight […]) of microbial culture in its exponential phase of growth (OD600nm=1.3-1.5) was used as inoculum for all the experiments conducted in this investigation.
# (§2) Set-1, set-4 and set-5 were included as control-1, control-2 and control-3 respectively. All the experiments were carried out in P2 nutrient media as described later in batch fermentation section.
# (§3) Batch fermentation was performed in 125 mL serum vials (working volume of 50 mL) at pH 6.7±0.1. The P2 medium was sterilized at 121±1° C. for 20 min. Prior to fermentation, anaerobic conditions for each bottle were maintained by sparging the medium with N2 for 10 minutes and immediately closing with an aluminum crimp seal containing silicon septum (Fisher scientific, Canada) by means of a hand-operated crimper (E-Z Crimper™, VWR, Ontario, Canada). A modified P2 medium, with the following composition, was used for fermentation experiments: Buffer→KH2PO450 g/L, K2HPO450 g/L, ammonium acetate 220 g/L; Minerals→MgSO4*7H2O 20 g/L, MnSO4*H2O 1 g/L, FeSO4*7H2O 1 g/L, NaCl 1 g/L; Vitamins→thiamin 0.1 g/L, biotin 0.001 g/L). Since brewery industry wastes were already enriched with yeast protein, no additional yeast protein nor peptone were supplemented.
# (§4) The fermentation was initiated by inoculating the P2 medium with the seed cultures at a ratio of 10% (v:v). […] Fermentation experiments were performed at 37±1° C. with shaking at 150 rpm for 72 h in duplicates. 1 mL of culture broth from each batch assay was used for metabolite analysis. Data described here present average values from duplicate runs for duplicate samples.
# (§5) To determine the different metabolites produced during ABE fermentation (i.e. butanol, ethanol, acetone, butyric acid, and acetic acid) liquid samples from each fermentation broth were collected and analyzed using gas chromatography (GC) (GC7890B, Agilent Technologies, USA) equipped with a FID detector and a HP-INNOWax™ column (30 m, 0.25 mm ID, 0.25 μm df). Isobutanol was used as the internal standard. Before injecting the sample (1 mL) in the GC for products analysis, the sample was centrifuged for 5 minutes at 7650×g and the supernatant was filtered by 0.45 μm syringe filter. The GC conditions comprised: helium carrier gas at a flow rate of 1 mL/min with a temperature ramp from the initial temperature of 50° C. to 150° C.
# [2] = system: Clostridium beijerinckii NRRL B-466 (CB); assay: Bio-compatibility (solvent toxicity) batch ABE fermentation, CB
# Protocol: as §1, §2, §3, §4, §5
# [3] = Organic-solvent extraction of microbial inhibitors from an agro-waste hydrolysate mimic; assay type: physicochemical; conditions: for Ferulic acid removal / Furfural removal / HMF removal / Syringaldehyde removal / TRS removal / Vanillic acid removal / Vanillin removal / TRS (total reducing sugar) after extraction: Vaqueous:Vorganic = 2:1; for TRS (total reducing sugar) after extraction: standard 52.00 g/L
# Description: Media composition was designed according to the inhibitory compound limit concentration reported in the literature for bio-butanol producing solventogenic Clostridia (Baral et al. Microbial inhibitors: formation and effects on acetone-butanol-ethanol fermentation of lignocellulosic biomass. Applied microbiology and biotechnology, Vol. 98(22), 2014: 9151-9172; Qureshi et al. Production of butanol (a biofuel) from agricultural residues: Part I—Use of barley straw hydrolysate. Biomass and bioenergy, Vol. 34(4), 2010: 559-565). Different volume ratio of the hydrolysate mimic and organic solvents, such as (5:1), (3:1), (2:1), (1:1) and (1:2) (vaqueous:vorganic) were tried in order to minimize extractant expenditure. Organic and aqueous phase mixing was carried out by a propeller impeller. Rotation rate (100, 200, 250, 300 and 400 rpm) and operation-time (15, 30, 45, 60 and 90 min) were tested at room temperature (25° C.). A comparative study between settling through separating funnel vs. centrifugal force assisted separation was also made to guarantee an optimal recovery of the broth phase.
# A complex mixture of several reduced sugar compounds (e.g. as glucose, fructose, and xylose) and microbial inhibitors (furfural, HMF, acetic acid, levulinic acid, vanillin, vanillic acid, feluric acid and syringaldehyde) were produced during the pretreatment step (hydrolysis). In order to analyse these compounds, liquid samples were collected and analyzed using liquid chromatography-mass spectrometry (LC-MS) and liquid chromatography-tandem mass spectrometry (LC/MS-MS) equipped with a ZORBAX Carbohydrate column (5 μm, 150×4.6 mm ID column) (Agilent Technologies, USA) with D6 glucose as the internal standard and a Biobasic-18 column (5 μm, 250×4.6 mm ID) (Agilent Technologies, USA) with phenylethanol-D5 as the internal standard. […] Methanol water (8:2) and acetonitrile water (8.5:1.5) were used to dilute the sample before inhibitor and carbohydrate analysis. […]
# [4] = Control-2 (glucose + BIS) + extraction (2:1 mimic:organic solvent) before fermentation
# [5] = Set-7 (10 times diluted BIS) + extraction (2:1)
# [6] = Set-8 (50 times diluted BIS) + extraction (2:1)
# [7] = Extraction 1, hydrolysate mimic
# [8] = Extraction 2, hydrolysate mimic
# [9] = Extraction 3, hydrolysate mimic
# [10] = Extraction 4, hydrolysate mimic
# [11] = first stage, ratio 2:1, hydrolysate mimic
# [12] = simulated synthetic media as well as waste hydrolysate, ex-situ detoxification
structure (smiles),measurement,setting,value
CCCCC(CC)COC(=O)CCCCCCCCC(=O)OCC(CC)CCCC (stereo not drawn) [bis-(2-ethylhexyl) sebacate],ABE,[1]; [4],13.96 ± 0.3 g/L
same,Butanol,[1]; [4],10.25 ± 0.5 g/L
same,ABE,[1]; [5],12.5 ± 0.2 g/L
same,Butanol,[1]; [5],9.13 ± 0.2 g/L
same,ABE,[1]; [6],12.2 ± 0.3 g/L
same,Butanol,[1]; [6],9.1 ± 0.3 g/L
same,Average increase in bio-butanol production in comparison with control 1/set-1,"[1]; set-9: control 2 after extraction, both bacterial strains",8-10%
same,ABE,[2]; [4],13.15 ± 0.3 g/L
same,Butanol,[2]; [4],9.58 ± 0.2 g/L
same,ABE,[2]; [5],11.48 ± 0.4 g/L
same,Butanol,[2]; [5],8.62 ± 0.3 g/L
same,ABE,[2]; [6],11.0 ± 0.3 g/L
same,Butanol,[2]; [6],8.4 ± 0.2 g/L
same,Ferulic acid removal,[3]; [7],97%
same,Furfural removal,[3]; [7],79%
same,HMF removal,[3]; [7],78%
same,Syringaldehyde removal,[3]; [7],93%
same,TRS removal,[3]; [7],0%
same,Vanillic acid removal,[3]; [7],93%
same,Vanillin removal,[3]; [7],95%
same,TRS (total reducing sugar) after extraction,[3]; [7],52.00 g/L
same,Ferulic acid removal,[3]; [8],99%
same,Furfural removal,[3]; [8],97%
same,HMF removal,[3]; [8],96%
same,Syringaldehyde removal,[3]; [8],99%
same,TRS removal,[3]; [8],0%
same,Vanillic acid removal,[3]; [8],97%
same,Vanillin removal,[3]; [8],97%
same,TRS (total reducing sugar) after extraction,[3]; [8],52.00 g/L
same,Ferulic acid removal,[3]; [9],100%
same,Furfural removal,[3]; [9],100%
same,HMF removal,[3]; [9],100%
same,Syringaldehyde removal,[3]; [9],100%
same,TRS removal,[3]; [9],0%
same,Vanillic acid removal,[3]; [9],100%
same,Vanillin removal,[3]; [9],100%
same,TRS (total reducing sugar) after extraction,[3]; [9],52.00 g/L
same,Ferulic acid removal,[3]; [10],100%
same,Furfural removal,[3]; [10],100%
same,HMF removal,[3]; [10],100%
same,Syringaldehyde removal,[3]; [10],100%
same,TRS removal,[3]; [10],0%
same,Vanillic acid removal,[3]; [10],100%
same,Vanillin removal,[3]; [10],100%
same,TRS (total reducing sugar) after extraction,[3]; [10],52.00 g/L
same,Extraction efficiency for phenolic compounds,[3]; [11],> 93%
same,Extraction efficiency towards furan derivatives,[3]; [11],78-79%
same,Removal of the inhibitors from the mimic synthetic media,"[3]; set-10 and set-11 (10 and 50 times diluted BIS), extraction 2:1",> 99%
same,Extraction of furan derivatives,[3]; [12],More than 80%
same,Extraction of phenolic compounds,[3]; [12],more than 95%
same,Extraction of reducing sugar,[3]; [12],almost no extraction
